Experimental data taken from patent US12577247B2 (BUGWORKS RESEARCH, INC., priority 2021, dated 2026).

Tests used:
[1] = target: T1, A2A receptor (Homo sapiens, UniProt P29274); assay: A2aR antagonism IC50, cAMP TR-FRET in HEK-293 cells, high concentration of adenosine (30 μM); assay type: cell-based; details: HEK-293 cells expressing A2A receptor; agonist adenosine 30 μM; 2% HSA; inhibition of cAMP; read-out: A2AR IC50 (nM) (@30 μM Adenosine);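 note: compounds added 10 min before adenosine, then 30 min stimulation at room temperature in buffer with 100 µM rolipram and 30 µM EHNA, signal read 1 h after detection reagents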
T1 construct: host or cells: HEK-293
T1 sequence (P29274 whole entry): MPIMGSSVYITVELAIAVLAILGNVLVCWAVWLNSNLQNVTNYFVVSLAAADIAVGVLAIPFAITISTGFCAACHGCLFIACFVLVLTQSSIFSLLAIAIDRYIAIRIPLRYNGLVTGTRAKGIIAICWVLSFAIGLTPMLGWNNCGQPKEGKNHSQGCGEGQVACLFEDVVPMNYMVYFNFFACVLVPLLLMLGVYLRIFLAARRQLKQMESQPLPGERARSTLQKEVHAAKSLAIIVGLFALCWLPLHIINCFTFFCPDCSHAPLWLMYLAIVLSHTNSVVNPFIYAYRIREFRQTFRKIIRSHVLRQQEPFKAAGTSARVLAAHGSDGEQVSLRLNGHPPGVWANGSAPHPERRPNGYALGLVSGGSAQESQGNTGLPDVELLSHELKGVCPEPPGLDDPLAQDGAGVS

[2] = target: T2, A2B receptor (Homo sapiens, UniProt P29275); assay: A2bR antagonism IC50, cAMP TR-FRET in HEK-293 cells, high concentration of adenosine (30 μM); details: A2BR IC50 (nM) (@30 μM Adenosine), HEK-293 cells expressing A2B receptor; agonist adenosine 30 μM; 2% HSA; inhibition of cAMP;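 note: compounds preincubated 10 min with cells, then adenosine stimulation 30 min at room temperature in buffer with Rolipram 100 µM and EHNA 30 µM, TR-FRET read after 1 h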
T2 sequence (P29275 1-332): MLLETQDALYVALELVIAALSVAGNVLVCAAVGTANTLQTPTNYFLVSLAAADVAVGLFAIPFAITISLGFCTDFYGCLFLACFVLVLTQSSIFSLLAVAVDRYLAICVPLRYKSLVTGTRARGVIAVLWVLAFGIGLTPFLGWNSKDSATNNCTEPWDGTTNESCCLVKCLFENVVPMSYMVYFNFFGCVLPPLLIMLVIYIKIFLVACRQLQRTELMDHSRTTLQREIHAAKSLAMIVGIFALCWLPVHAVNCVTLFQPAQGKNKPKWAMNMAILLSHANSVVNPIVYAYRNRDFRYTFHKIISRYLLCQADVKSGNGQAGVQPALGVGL

For `CCc1c(C)nn2c(N)c(C#N)c(NCCc3cccn(CCCNC(C)=O)c3=O)nc12` [Example 145, N-(3-(3-(2-((7-amino-6-cyano-3-ethyl-2-methylpyrazolo[1,5-a]pyrimidin-5-yl)amino)ethyl)-2-oxopyridin-1(2H)-yl)propyl) acetamide], the IC50 [1] was 294 nM and the IC50 [2] was 1130 nM.
Compound `Cc1nn2c(N)c(C#N)c(NCCc3ccn(C4CCC4CNCCO)n3)nc2c1Cl` (stereo not drawn) [Example 117, 7-amino-3-chloro-5-((2-(1-(2-(((2-hydroxyethyl)amino)methyl)cyclobutyl)-1H-pyrazol-3-yl)ethyl)amino)-2-methylpyrazolo[1,5-a]pyrimidine-6-carbonitrile] has an IC50 [1] of 66 nM and an IC50 [2] of 3060 nM.
`Cc1nn2c(N)c(C#N)c(NCCc3ccn(C4CCC4CO)n3)nc2c1C` (single isomer, unassigned; (-)) [Example 104b, (−)-7-amino-5-((2-(1-(2-(hydroxymethyl)cyclobutyl)-1H-pyrazol-3-yl)ethyl)amino)-2,3-dimethylpyrazolo[1,5-a]pyrimidine-6-carbonitrile] gave an IC50 [1] of 102 nM and an IC50 [2] of 2610 nM.
Compound `Cc1nn2c(N)c(C#N)c(NCCc3ccn(C4COCC4CO)n3)nc2c1C` (single isomer, unassigned; (-)) [Example 133b, (−)-7-amino-5-((2-(1-(4-(hydroxymethyl)tetrahydrofuran-3-yl)-1H-pyrazol-3-yl)ethyl)amino)-2,3-dimethylpyrazolo[1,5-a]pyrimidine-6-carbonitrile] has an IC50 [1] of 136 nM and an IC50 [2] of 6070 nM.
In the case of `CCc1c(C(F)F)nn2c(N)c(C#N)c(NCCc3ccn(C4CCC4CO)n3)nc12` (stereo not drawn) [Example 102, 7-amino-2-(difluoromethyl)-3-ethyl-5-((2-(1-(2-(hydroxymethyl)cyclobutyl)-1H-pyrazol-3-yl)ethyl)amino) pyrazolo[1,5-a]pyrimidine-6-carbonitrile], the IC50 [1] is reported as 804 nM and the IC50 [2] is reported as 8300 nM.
`Cc1nn2c(N)c(C#N)c(NCCc3cccn(C)c3=O)nc2c1Cl` [Example 87, 7-amino-3-chloro-2-methyl-5-((2-(1-methyl-2-oxo-1,2-dihydropyridin 3-yl)ethyl)amino) pyrazolo[1,5-a]pyrimidine-6-carbonitrile] gave an IC50 [1] of 80 nM and an IC50 [2] of 1760 nM.
`Cc1nn2c(N)c(C#N)c(NCCc3ccn(C4(CNCCO)CC4)n3)nc2c1Cl` [Example 98, 7-amino-3-chloro-5-((2-(1-(1-(((2-hydroxyethyl)amino)methyl)cyclopropyl)-1H-pyrazol-3-yl)ethyl)amino)-2-methylpyrazolo[1,5-a]pyrimidine-6-carbonitrile] showed an IC50 [1] of 100 nM and an IC50 [2] greater than 15000 nM.
`CCc1c(C)nn2c(N)c(C#N)c(NCCc3ccn(C4COCC4CO)n3)nc12` (single isomer, unassigned; (+)) [Example 122a, (+)-7-amino-3-ethyl-5-((2-(1-(4-(hydroxymethyl)tetrahydrofuran-3-yl)-1H-pyrazol-3-yl)ethyl)amino)-2-methyl pyrazolo[1,5-a]pyrimidine-6-carbonitrile] gave an IC50 [1] of 289 nM and an IC50 [2] of 707 nM.
Work on `Cc1nn2c(N)c(C#N)c(NCCc3cccn(CCO)c3=O)nc2c1Cl` [Example 93, 7-amino-3-chloro-5-((2-(1-(2-hydroxyethyl)-2-oxo-1,2-dihydropyridin-3-yl)ethyl)amino)-2-methylpyrazolo[1,5-a]pyrimidine-6-carbonitrile] yielded an IC50 [1] of 50 nM and an IC50 [2] of 1230 nM.
For `Cc1nn2c(N)c(C#N)c(NCCc3ccn(C4(CO)CC4)n3)nc2c1C(F)(F)F` [Example 94, 7-amino-5-((2-(1-(1-(hydroxymethyl)cyclopropyl)-1H-pyrazol-3-yl)ethyl)amino)-2-methyl-3-(trifluoromethyl) pyrazolo[1,5-a]pyrimidine-6-carbonitrile], the IC50 [1] was 104 nM and the IC50 [2] was 10000 nM.
With `CCc1c(C)nn2c(N)c(C#N)c(NCCc3cccc(CNCCO)n3)nc12` [Example 97, 7-amino-3-ethyl-5-((2-(6-(((2-hydroxyethyl)amino)methyl)pyridine-2-yl)ethyl)amino)-2-methylpyrazolo[1,5-a]pyrimidine-6-carbonitrile] the IC50 [1] was 451 nM and the IC50 [2] was 1430 nM.
In the case of `CCc1c(C)nn2c(N)c(C#N)c(NCCc3cccn(CC[S+](C)[O-])c3=O)nc12` (single isomer, unassigned; (-)) [Example 144b, (−)7-amino-3-ethyl-2-methyl-5-((2-(1-(2-(methylsulfinyl)ethyl)-2-oxo-1,2-dihydropyridin-3-yl)ethyl)amino) pyrazolo[1,5-a]pyrimidine-6-carbonitrile], the IC50 [1] is reported as 254 nM and the IC50 [2] is reported as 815 nM.
In the case of `CCc1c(C)nn2c(N)c(C#N)c(NCCc3cccn(CCC[S+](C)[O-])c3=O)nc12` (single isomer, unassigned; (+)) [Example 154b, (+)-7-amino-3-ethyl-2-methyl-5-((2-(1-(3-(methylsulfinyl)propyl)-2-oxo-1,2-dihydropyridin-3-yl)ethyl)amino) pyrazolo[1,5-a]pyrimidine-6-carbonitrile], the IC50 [1] is reported as 1010 nM and the IC50 [2] is reported as 1410 nM.
`Cc1nn2c(N)c(C#N)c(NCCc3ccn(C4COCC4CO)n3)nc2c1C` (single isomer, unassigned; (+)) [Example 133a, (+)-7-amino-5-((2-(1-(4-(hydroxymethyl)tetrahydrofuran-3-yl)-1H-pyrazol-3-yl)ethyl)amino)-2,3-dimethylpyrazolo[1,5-a]pyrimidine-6-carbonitrile] gave an IC50 [1] of 554 nM and an IC50 [2] of 6690 nM.
For `Cc1nn2c(N)c(C#N)c(NCCc3ccn(C4(CO)CC4)n3)nc2c1Br` [Example 69, 7-amino-3-bromo-5-((2-(1-(1-(hydroxymethyl)cyclopropyl)-1H-pyrazol-3-yl)ethyl)amino)-2-methylpyrazolo[1,5-a]pyrimidine-6-carbonitrile], the IC50 [1] was 68 nM and the IC50 [2] was 2050 nM.
`CCc1c(C)nn2c(N)c(C#N)c(NCCc3ccn(C4(CNCC[S+](C)[O-])CC4)n3)nc12` (single isomer, unassigned; (-)) [Example 163a, (−)-7-amino-3-ethyl-2-methyl-5-((2-(1-(1-(((2-(methylsulfinyl)ethyl)amino)methyl)cyclopropyl)-1H-pyrazol-3-yl)ethyl)amino) pyrazolo[1,5-a]pyrimidine-6-carbonitrile] gave an IC50 [1] of 72 nM and an IC50 [2] of 11100 nM.
In the case of `CCCc1c(C)nn2c(N)c(C#N)c(NCCc3ccn(C4CCC4CO)n3)nc12` (single isomer, unassigned; (-)) [Example 165b, (−)-7-amino-5-((2-(1-(2-(hydroxymethyl)cyclobutyl)-1H-pyrazol-3-yl)ethyl)amino)-2-methyl-3-propylpyrazolo[1,5-a]pyrimidine-6-carbonitrile], the IC50 [1] is reported as 1540 nM and the IC50 [2] is reported as 9160 nM.
In the case of `Cc1nn2c(N)c(C#N)c(NCCc3ccn(C4CCCC4CO)n3)nc2c1Cl` (stereo not drawn) [Example 114, 7-amino-3-chloro-5-((2-(1-(2-(hydroxymethyl)cyclopentyl)-1H-pyrazol-3-yl)ethyl)amino)-2-methylpyrazolo[1,5-a]pyrimidine-6-carbonitrile], the IC50 [1] is reported as 96 nM and the IC50 [2] is reported as 4380 nM.
Compound `Cc1nn2c(N)c(C#N)c(NCCc3ccn(C4(CCO)CC4)n3)nc2c1Cl` [Example 112, 7-amino-3-chloro-5-((2-(1-(1-(2-hydroxyethyl)cyclopropyl)-1H-pyrazol-3-yl)ethyl)amino)-2-methylpyrazolo[1,5-a] pyrimidine-6-carbonitrile] has an IC50 [1] of 84 nM and an IC50 [2] of 10800 nM.
`CCc1c(C)nn2c(N)c(C#N)c(NCCc3ccn(C4CCC4CO)n3)nc12` (single isomer, unassigned; (+)) [Example 78, (+)-7-amino-3-ethyl-5-((2-(1-(2-(hydroxymethyl)cyclobutyl)-1H-pyrazol-3-yl)ethyl)amino)-2-methylpyrazolo[1,5-a]pyrimidine-6-carbonitrile] showed an IC50 [1] of 200 nM and an IC50 [2] of 798 nM.
For `CCc1c(C)nn2c(N)c(C#N)c(NCCc3ccn(C4(CCO)CC4)n3)nc12` [Example 124, 7-amino-3-ethyl-5-((2-(1-(1-(2-hydroxyethyl)cyclopropyl)-1H-pyrazol-3-yl)ethyl)amino)-2-methylpyrazolo[1,5-a] pyrimidine-6-carbonitrile], the IC50 [1] was 126 nM and the IC50 [2] was 2220 nM.
`CCCc1c(C)nn2c(N)c(C#N)c(NCCc3ccn(C4COCC4CO)n3)nc12` (single isomer, unassigned; (-)) [Example 160b, (−) 7-amino-5-((2-(1-(4-(hydroxymethyl)tetrahydrofuran-3-yl)-1H-pyrazol-3-yl)ethyl)amino)-2-methyl-3-propylpyrazolo[1,5-a]pyrimidine-6-carbonitrile] showed an IC50 [1] of 341 nM and an IC50 [2] of 1250 nM.
`CCc1c(C)nn2c(N)c(C#N)c(NCCc3ccn(CCC[S+](C)[O-])n3)nc12` (single isomer, unassigned; (-)) [Example 162a, (−)-7-amino-3-ethyl-2-methyl-5-((2-(1-(3-(methylsulfinyl)propyl)-1H-pyrazol-3-yl)ethyl)amino)pyrazolo[1,5-a]pyrimidine-6-carbonitrile] gave an IC50 [1] of 1880 nM and an IC50 [2] of 5790 nM.
`CCc1c(C)nn2c(N)c(C#N)c(NCCc3ccn(CCCSC)n3)nc12` [Example 161, 7-amino-3-ethyl-2-methyl-5-((2-(1-(3-(methylthio)propyl)-1H-pyrazol-3-yl)ethyl)amino)pyrazolo[1,5-a]pyrimidine-6-carbonitrile] was tested, and the IC50 [1] was 2770 nM and the IC50 [2] was 3970 nM.
